# Source: patent US10000483B2, “Bone marrow on X chromosome kinase (BMX) inhibitors and uses thereof” (Dana-Farber Cancer Institute, Inc., priority 2012, dated 2018)
# Values joined by “and” are separate entries in the source; they are usually repeats but may differ in a detail not shown here. Equal entries are not always repeated.
# Columns and labels:
# RV-1 cells [1] = assay: Anti-proliferation assay for prostate cancer cells (CellTiter-Glo); format: cell-based
# Description: Data were normalized to control group (DMSO) and represented by the mean of at least two independent measurement with standard error <20%. GI50 were calculated using Prism 5.0 (GraphPad Software, San Diego, Calif.).
# wild-type (WT) BMX = wild-type (WT) BMX (Homo sapiens (Human), UniProt P51813); assay: IP kinase assay, BMX autophosphorylation; format: biochemical; settings: FIG. 15
# Text: FIG. 15 confirms that the potency of the BMX inhibitors is due to covalent binding to cysteine 496.
# BMX [2] = molecular target: T1, BMX (Homo sapiens (Human), UniProt P51813); assay: BMX protein levels in RV-1 cells; format: cell-based; settings: 72 h treatment, 5 μM
# Text: Moreover, the depletion could be rescued upon stable overexpression of the C496S mutant BMX.
# OCI-Ly19 cells = assay: Cell proliferation analysis for WM and lymphoma cell lines (CellTiter-Glo); format: cell-based; settings: Homo sapiens, 72 hours
# Description: (§2) Various cell lines were used including Waldenström's macroglobulinemia (WM) cell lines (BCWM.1, MWCL-1, RPCI-WM1) and B-cell lymphoma cell lines (OCI-Ly3, Ramos, OCI-Ly19). Cells were seeded into 384 well plates with the EL406 Combination Washer Dispenser (BioTek Instruments, Inc.) and inhibitor compounds were injected into the cells culture media with the JANUS Automated Workstation (PerkinElmer Inc.).
# MWCL-1 cells = assay: as above; format: cell-based; settings: 72 hours
# Description: as §2
# [3] = test system: CD19+ B-cells from a Waldenstrom's macroglobulinemia patient; assay: Apoptosis analysis of primary patient cells (Annexin V/propidium iodide); format: cell-based, human; settings: patient after six months of ibrutinib treatment; FIG. 22
# Description: Primary patient WM cells genotyped for MYD88 L265P, as well as MYD88 WT healthy donor CD19-selected peripheral blood mononuclear cells (PBMCs) were treated with and without inhibitor compounds. Cells were incubated at 37° C. with 0.01˜4 μM of an inhibitor compound of Formula (I) or (II) (e.g., 11-4). Apoptosis analysis was performed using Annexin V-FITC/Propidium iodide staining with the Apoptosis Detection Kit I (BD Pharmingen). 1×10^6/well cells were treated in 24 well plates for˜24 hours with inhibitor compounds or corresponding controls. A minimum of 10,000 events were acquired using a BD™ FACSCanto II flow cytometer and analyzed with BD FACS DIVA Software.
# OCI-Ly3 cells = assay: Cell proliferation analysis for WM and lymphoma cell lines (CellTiter-Glo); format: cell-based; settings: Homo sapiens, 72 hours
# Description: as §2
# BCWM.1 cells = assay: as above; format: cell-based; settings: BCWM1; 72 hours
# Description: as §2
# PIK4CB = PIK4CB (Homo sapiens (Human), UniProt Q9UBF8); assay: Kinase panel at 1 uM (Table 9); format: binding; settings: read-out: % inhibition at 1 uM, PIK4CB
# Description: (§3) Screening hits are identified by measuring the amount of protein captured in test versus control samples by using a quantitative, precise, and ultra-sensitive qPCR method that detects the associated DNA label.
# DYRK1B = DYRK1B (Homo sapiens (Human), UniProt Q9Y463); assay: Kinase panel at 1 uM (Table 9); format: binding; settings: read-out: % inhibition at 1 uM, DYRK1B
# Description: as §3
# JAK3 [4] = molecular target: T2, JAK3 (Homo sapiens (Human), UniProt P52333); assay: DiscoverX binding assay
# Description: as §3
# JAK3 [5] = molecular target: T2, JAK3; assay: Invitrogen Select Screening in vitro kinase assay; format: biochemical
# Ramos cells = assay: Cell proliferation analysis for WM and lymphoma cell lines (CellTiter-Glo); format: cell-based; settings: Homo sapiens, 72 hours
# Description: as §2
# BTK [6] = molecular target: T3, BTK (Homo sapiens (Human), UniProt Q06187); assay: Invitrogen Select Screening in vitro kinase assay; format: biochemical
# BLK [7] = molecular target: T4, BLK (Homo sapiens (Human), UniProt P51451); assay: DiscoverX binding assay
# Description: as §3
# DYRK1A = DYRK1A (Homo sapiens (Human), UniProt Q13627); assay: Kinase panel at 1 uM (Table 9); format: binding; settings: read-out: % inhibition at 1 uM, DYRK1A
# Description: as §3
# PIP5K2C = PIP5K2C (Homo sapiens (Human), UniProt Q8TBX8); assay: Kinase panel at 1 uM (Table 9); format: binding; settings: read-out: % inhibition at 1 uM, PIP5K2C
# Description: as §3
# DYRK2 = DYRK2 (Homo sapiens (Human), UniProt Q92630); assay: Kinase panel at 1 uM (Table 9); format: binding; settings: read-out: % inhibition at 1 uM, DYRK2
# Description: as §3
# MKNK2 = MKNK2 (Homo sapiens (Human), UniProt Q9HBH9); assay: Kinase panel at 1 uM (Table 9); format: binding; settings: read-out: % inhibition at 1 uM, MKNK2
# Description: as §3
# CLK2 [8] = molecular target: T5, CLK2 (Homo sapiens (Human), UniProt P49760); assay: DiscoverX binding assay
# Description: as §3
# TAK1 = TAK1 (Homo sapiens (Human), UniProt O43318); assay: Kinase panel at 1 uM (Table 9); format: binding; settings: read-out: % inhibition at 1 uM, TAK1
# Description: as §3
# JNK1 = JNK1 (Homo sapiens (Human), UniProt P45983); assay: Kinase panel at 1 uM (Table 9); format: binding; settings: read-out: % inhibition at 1 uM, JNK1
# Description: as §3
# BTK [9] = molecular target: T3, BTK; assay: DiscoverX binding assay
# Description: as §3
# CLK2 [10] = molecular target: T5, CLK2; assay: Invitrogen Select Screening in vitro kinase assay; format: biochemical; settings: second value of CLK1/2 cell
# MEK5 = MEK5 (Homo sapiens (Human), UniProt Q13163); assay: Kinase panel at 1 uM (Table 9); format: binding; settings: read-out: % inhibition at 1 uM, MEK5
# Description: as §3
# PIK3CA(I800L) = PIK3CA(I800L) (Homo sapiens (Human), UniProt P42336, I800L); assay: Kinase panel at 1 uM (Table 9); format: binding; settings: read-out: % inhibition at 1 uM, PIK3CA(I800L)
# Description: as §3
# CLK1 [11] = molecular target: T6, CLK1 (Homo sapiens (Human), UniProt P49759); assay: DiscoverX binding assay
# Description: as §3
# EGFR(T790M) [12] = molecular target: T7, EGFR(T790M) (Homo sapiens (Human), UniProt P00533, T790M); assay: DiscoverX binding assay
# Description: as §3
# BLK [13] = molecular target: T4, BLK; assay: Invitrogen Select Screening in vitro kinase assay; format: biochemical
# Text: (§1) The in vitro activity of compounds of Formula (I) and (II) in inhibiting BMX and other kinases were obtained using an Invitrogen Select Screening assay as known in the art. The IC50 values determined from this assay are shown below.
# mTOR [14] = molecular target: T8, mTOR (Homo sapiens (Human), UniProt P42345); assay: Invitrogen Select Screening in vitro kinase assay; format: biochemical
# Text: as §1
# PIK3CG = PIK3CG (Homo sapiens (Human), UniProt P48736); assay: Kinase panel at 1 uM (Table 9); format: binding; settings: read-out: % inhibition at 1 uM, PIK3CG
# Description: as §3
# CLK1 [15] = molecular target: T6, CLK1; assay: Invitrogen Select Screening in vitro kinase assay; format: biochemical; settings: first value of CLK1/2 cell
# BMX [16] = molecular target: T1, BMX; assay: DiscoverX binding assay
# Description: as §3
# IRAK3 = IRAK3 (Homo sapiens (Human), UniProt Q9Y616); assay: Kinase panel at 1 uM (Table 9); format: binding; settings: read-out: % inhibition at 1 uM, IRAK3
# Description: as §3
# ITK = ITK (Homo sapiens (Human), UniProt Q08881); assay: DiscoverX binding assay
# Description: as §3
# FLT3(ITD) = assay: Kinase panel at 1 uM (Table 9); format: binding
# Description: as §3
# JNK3 = JNK3 (Homo sapiens (Human), UniProt P53779); assay: Kinase panel at 1 uM (Table 9); format: binding; settings: read-out: % inhibition at 1 uM, JNK3
# Description: as §3
# mTOR [17] = molecular target: T8, mTOR; assay: DiscoverX binding assay; settings: DiscoverX binding
# Description: as §3
# YSK4 = YSK4 (Homo sapiens (Human), UniProt Q56UN5); assay: Kinase panel at 1 uM (Table 9); format: binding; settings: read-out: % inhibition at 1 uM, YSK4
# Description: as §3
# CSNK2A2 = CSNK2A2 (Homo sapiens (Human), UniProt P19784); assay: Kinase panel at 1 uM (Table 9); format: binding; settings: read-out: % inhibition at 1 uM, CSNK2A2
# Description: as §3
# EGFR(T790M) [18] = molecular target: T7, EGFR(T790M); assay: Invitrogen Select Screening in vitro kinase assay; format: biochemical
# BMX [19] = molecular target: T1, BMX; assay: Invitrogen Select Screening in vitro kinase assay; format: biochemical
# TEC [20] = molecular target: T9, TEC (Homo sapiens (Human), UniProt P42680); assay: DiscoverX binding assay
# Description: as §3
# TEC [21] = molecular target: T9, TEC; assay: Invitrogen Select Screening in vitro kinase assay; format: biochemical
# Text: as §1
# RV-1 cells [22] = assay: Combination of I-14 with MK2206, dose-response in RV-1 cells; settings: with I-14
# [23] = test system: Bmx- MEF cells stably overexpressing BmxWT; assay: Wound healing assay; format: cell-based, mouse; settings: preincubated 4 h; leading edges at 0 and 9 h
# Description: FIGS. 3A-B show the immunoblotting results where BMX (SiBMX) or control siRNA (SiCtrl) transfected LNCaP cells (FIG. 3A) or VCS2 cells (FIG. 3B) were serum starved for 72 h, serum was stimulated for the indicated times, and the whole cell lysates were immunoblotted. […] FIG. 3G is a bar graph showing the migrated distances where scratch wounds were introduced into confluent heterozygous for Bmx (Bmx^+/−), Bmx^+, or Bmx^− MEFs, and the leading edges were photographed at 0 and 9 h. The migrated distance was measured and normalized to #1 Bmx-group. Error bars depict standard error (SE) for three experiments (***: p<0.001). FIG. 3H is a bar graph showing the migrated distances where scratch wounds were introduced into confluent Bmx^− MEFs stably overexpressing BmxWT, BmxKD, or empty vector (EV), and the leading edges were photographed at 0 and 9 h. The migrated distance was measured and normalized to EV group. Error bar depict standard error (SE) for three independent experiments (*: p<0.05). FIG. 3I is a bar graph showing the migrated distances where Bmx^− MEF cells stably overexpressing BmxWT were preincubated with FAK inhibitor (PF562271) for 4 h. Scratch wounds were introduced into the cells, and the leading edges were photographed at 0 and 9 h. The migrated distance was measured and normalized to control group (Ctrl). […]
# T1 sequence (P51813 whole entry): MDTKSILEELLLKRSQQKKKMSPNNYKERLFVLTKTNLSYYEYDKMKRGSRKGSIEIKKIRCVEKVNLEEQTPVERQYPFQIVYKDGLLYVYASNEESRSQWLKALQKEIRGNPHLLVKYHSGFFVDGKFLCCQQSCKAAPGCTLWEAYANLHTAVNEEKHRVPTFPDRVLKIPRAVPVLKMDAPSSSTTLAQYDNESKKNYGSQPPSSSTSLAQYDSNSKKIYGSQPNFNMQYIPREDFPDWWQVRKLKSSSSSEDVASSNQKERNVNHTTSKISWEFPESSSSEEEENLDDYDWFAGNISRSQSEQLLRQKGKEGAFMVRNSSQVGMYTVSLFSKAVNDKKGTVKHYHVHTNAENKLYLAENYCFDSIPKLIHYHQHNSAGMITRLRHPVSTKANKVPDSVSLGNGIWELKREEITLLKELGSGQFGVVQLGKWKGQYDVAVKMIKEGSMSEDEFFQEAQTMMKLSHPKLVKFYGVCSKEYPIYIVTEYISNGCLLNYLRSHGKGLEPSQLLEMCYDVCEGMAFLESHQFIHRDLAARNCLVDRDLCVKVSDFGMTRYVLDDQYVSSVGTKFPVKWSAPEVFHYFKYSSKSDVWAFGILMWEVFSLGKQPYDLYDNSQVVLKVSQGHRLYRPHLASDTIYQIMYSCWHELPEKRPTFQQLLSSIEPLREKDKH
# T6 sequence (P49759 whole entry): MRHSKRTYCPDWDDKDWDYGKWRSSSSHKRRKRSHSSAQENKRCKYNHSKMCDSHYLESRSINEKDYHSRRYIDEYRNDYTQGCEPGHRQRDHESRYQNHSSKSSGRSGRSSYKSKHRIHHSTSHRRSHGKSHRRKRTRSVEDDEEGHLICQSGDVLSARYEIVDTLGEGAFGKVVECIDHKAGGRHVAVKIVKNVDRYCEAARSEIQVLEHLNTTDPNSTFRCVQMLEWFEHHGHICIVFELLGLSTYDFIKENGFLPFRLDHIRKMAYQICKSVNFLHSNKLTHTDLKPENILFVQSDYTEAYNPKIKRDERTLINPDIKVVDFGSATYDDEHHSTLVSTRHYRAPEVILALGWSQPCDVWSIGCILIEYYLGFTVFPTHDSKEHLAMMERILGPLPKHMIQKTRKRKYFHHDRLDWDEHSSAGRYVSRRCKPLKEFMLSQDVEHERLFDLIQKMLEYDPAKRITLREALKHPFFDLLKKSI
# T5 sequence (P49760 whole entry): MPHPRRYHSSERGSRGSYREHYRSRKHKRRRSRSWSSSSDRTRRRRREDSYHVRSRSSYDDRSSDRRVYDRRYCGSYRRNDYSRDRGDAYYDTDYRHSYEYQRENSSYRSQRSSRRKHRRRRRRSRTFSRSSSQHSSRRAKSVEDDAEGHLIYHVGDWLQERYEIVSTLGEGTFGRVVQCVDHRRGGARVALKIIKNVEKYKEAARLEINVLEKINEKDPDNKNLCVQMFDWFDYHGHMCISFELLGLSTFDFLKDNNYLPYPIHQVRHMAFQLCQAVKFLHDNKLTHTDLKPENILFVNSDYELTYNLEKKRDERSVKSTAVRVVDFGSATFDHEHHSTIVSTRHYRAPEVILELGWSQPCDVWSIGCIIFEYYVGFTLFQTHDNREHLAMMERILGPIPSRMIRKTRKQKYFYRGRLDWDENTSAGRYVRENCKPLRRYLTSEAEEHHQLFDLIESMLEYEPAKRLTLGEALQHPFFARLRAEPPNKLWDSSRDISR
# T2 sequence (P52333 whole entry): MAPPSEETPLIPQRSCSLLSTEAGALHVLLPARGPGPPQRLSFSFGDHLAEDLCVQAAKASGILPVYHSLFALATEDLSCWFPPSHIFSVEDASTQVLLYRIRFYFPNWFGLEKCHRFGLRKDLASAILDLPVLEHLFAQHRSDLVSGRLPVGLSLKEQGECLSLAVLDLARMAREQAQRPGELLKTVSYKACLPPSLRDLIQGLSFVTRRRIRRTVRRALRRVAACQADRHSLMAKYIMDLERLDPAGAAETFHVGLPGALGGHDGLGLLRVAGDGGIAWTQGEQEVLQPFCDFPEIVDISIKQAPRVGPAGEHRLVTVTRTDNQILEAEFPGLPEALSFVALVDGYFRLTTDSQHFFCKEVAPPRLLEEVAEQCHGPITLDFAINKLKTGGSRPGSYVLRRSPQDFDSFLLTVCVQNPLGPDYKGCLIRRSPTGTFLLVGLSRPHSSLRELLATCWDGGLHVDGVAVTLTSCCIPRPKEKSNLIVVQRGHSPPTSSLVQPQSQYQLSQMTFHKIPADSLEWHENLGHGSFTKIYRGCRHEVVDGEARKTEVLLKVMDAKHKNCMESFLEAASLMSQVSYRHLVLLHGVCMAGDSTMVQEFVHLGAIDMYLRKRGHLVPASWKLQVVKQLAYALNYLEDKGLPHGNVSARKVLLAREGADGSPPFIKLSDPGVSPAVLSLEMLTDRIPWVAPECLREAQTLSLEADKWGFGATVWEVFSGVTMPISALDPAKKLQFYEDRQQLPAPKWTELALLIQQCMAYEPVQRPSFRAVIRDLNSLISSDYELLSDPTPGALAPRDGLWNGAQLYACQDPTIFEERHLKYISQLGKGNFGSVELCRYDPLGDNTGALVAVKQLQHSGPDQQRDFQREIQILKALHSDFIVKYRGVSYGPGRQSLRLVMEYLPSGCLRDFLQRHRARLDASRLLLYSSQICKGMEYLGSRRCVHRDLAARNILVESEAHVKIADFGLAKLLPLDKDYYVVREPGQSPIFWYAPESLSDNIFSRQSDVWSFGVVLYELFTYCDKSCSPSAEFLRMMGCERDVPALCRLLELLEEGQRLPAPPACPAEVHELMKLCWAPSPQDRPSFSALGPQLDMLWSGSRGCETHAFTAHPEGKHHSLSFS
# T4 sequence (P51451 whole entry): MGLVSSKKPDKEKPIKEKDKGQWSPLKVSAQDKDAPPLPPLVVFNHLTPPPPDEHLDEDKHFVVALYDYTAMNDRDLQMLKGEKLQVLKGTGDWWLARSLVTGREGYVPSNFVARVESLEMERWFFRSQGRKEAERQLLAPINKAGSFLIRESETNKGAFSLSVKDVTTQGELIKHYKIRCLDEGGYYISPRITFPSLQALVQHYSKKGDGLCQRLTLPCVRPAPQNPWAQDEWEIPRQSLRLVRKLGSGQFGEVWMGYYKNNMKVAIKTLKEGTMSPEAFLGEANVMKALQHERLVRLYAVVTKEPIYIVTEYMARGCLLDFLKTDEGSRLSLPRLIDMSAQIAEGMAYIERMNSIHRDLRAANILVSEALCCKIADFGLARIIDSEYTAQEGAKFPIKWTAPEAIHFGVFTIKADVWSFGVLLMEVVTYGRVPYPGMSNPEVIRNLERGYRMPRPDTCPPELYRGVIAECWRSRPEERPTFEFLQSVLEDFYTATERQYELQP
# T3 sequence (Q06187 whole entry): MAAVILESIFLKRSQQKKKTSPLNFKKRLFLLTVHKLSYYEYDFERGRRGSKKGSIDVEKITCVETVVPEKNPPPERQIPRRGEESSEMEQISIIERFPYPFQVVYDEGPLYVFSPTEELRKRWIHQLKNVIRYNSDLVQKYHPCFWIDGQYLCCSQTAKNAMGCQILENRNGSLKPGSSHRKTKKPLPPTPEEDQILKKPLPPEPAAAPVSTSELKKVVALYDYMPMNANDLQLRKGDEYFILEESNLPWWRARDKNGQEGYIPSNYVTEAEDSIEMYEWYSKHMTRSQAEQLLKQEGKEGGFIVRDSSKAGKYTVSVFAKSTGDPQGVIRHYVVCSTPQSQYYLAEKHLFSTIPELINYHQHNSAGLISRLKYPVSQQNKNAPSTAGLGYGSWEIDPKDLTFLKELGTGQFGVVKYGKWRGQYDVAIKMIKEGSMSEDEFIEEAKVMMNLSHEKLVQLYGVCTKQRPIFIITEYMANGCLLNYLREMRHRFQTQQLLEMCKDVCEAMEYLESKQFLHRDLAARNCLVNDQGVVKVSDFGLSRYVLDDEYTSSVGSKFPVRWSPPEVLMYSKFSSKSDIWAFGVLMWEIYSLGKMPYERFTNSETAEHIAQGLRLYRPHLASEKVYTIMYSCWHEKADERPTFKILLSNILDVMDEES
# T9 sequence (P42680 whole entry): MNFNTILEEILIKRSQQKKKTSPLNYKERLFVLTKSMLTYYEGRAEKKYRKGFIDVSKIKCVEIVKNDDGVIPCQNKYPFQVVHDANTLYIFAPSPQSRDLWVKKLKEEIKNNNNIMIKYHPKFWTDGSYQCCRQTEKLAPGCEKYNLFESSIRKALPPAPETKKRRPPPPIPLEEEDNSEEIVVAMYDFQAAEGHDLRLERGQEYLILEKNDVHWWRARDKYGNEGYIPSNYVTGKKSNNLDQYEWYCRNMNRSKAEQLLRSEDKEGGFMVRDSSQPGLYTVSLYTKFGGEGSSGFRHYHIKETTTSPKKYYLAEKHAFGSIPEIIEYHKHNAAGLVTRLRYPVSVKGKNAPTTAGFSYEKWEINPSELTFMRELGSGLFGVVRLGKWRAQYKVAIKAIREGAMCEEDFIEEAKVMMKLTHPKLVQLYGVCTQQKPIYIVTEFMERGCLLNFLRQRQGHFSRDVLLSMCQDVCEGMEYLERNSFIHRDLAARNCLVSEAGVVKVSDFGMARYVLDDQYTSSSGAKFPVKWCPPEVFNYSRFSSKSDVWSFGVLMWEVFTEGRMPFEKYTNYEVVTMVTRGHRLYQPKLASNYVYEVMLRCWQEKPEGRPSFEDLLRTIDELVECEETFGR
# Chain of JNK1 (P45983 whole entry): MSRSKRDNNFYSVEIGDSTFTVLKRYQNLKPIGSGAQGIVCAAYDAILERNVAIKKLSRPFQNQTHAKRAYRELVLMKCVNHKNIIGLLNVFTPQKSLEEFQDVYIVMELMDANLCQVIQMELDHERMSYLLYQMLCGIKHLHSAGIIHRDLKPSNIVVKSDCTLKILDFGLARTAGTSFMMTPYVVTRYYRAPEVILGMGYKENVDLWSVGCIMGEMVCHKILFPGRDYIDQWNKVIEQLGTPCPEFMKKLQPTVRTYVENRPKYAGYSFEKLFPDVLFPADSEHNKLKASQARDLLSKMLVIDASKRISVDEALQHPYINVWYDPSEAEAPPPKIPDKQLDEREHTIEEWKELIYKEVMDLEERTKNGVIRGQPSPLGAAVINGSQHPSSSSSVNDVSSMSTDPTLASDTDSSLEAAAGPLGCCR
# Chain of wild-type (WT) BMX (P51813 whole entry): as the sequence (P51813 whole entry) above
structure (smiles),measurement,setting,value
CCC(=O)Nc1cc(-n2c(=O)ccc3cnc4ccc(-c5ccc(NS(C)(=O)=O)cc5)cc4c32)ccc1C [I-14R],concentration with antiproliferative effects against RV-1 cells,RV-1 cells [1],≥ 10 µM
same,concentration inhibiting autophosphorylation of wild-type BMX,wild-type (WT) BMX,"> 10,000 nM"
same,BMX protein levels in RV-1 cells,BMX [2],not
C=CC(=O)N1CCc2ccc(-n3c(=O)ccc4cnc5ccc(-c6cnn(C)c6)cc5c43)cc21 [II-4],EC50,OCI-Ly19 cells,30 nM
same,EC50,MWCL-1 cells,190 nM
same,killing of ex vivo CD19+ B-cells,[3],effectively killed ex vivo cells
same,EC50,OCI-Ly3 cells,190 nM
same,EC50,BCWM.1 cells,120 nM
C=CC(=O)Nc1cc(-n2c(=O)ccc3cnc4ccc(-c5cn[nH]c5)cc4c32)ccc1C [II-6],inhibition at 1 µM,PIK4CB,2.3%
same,inhibition at 1 µM,DYRK1B,1.8%
same,"Percent Control, JAK3",JAK3 [4]; DiscoverX binding,0%
same,inhibition at 1 µM,"JAK3 [4]; read-out: % inhibition at 1 uM, JAK3(JH1domain-catalytic)",0%
same,IC50,JAK3 [5],38.1 nM and 38 nM
same,EC50,Ramos cells,40 nM
same,IC50,BTK [6],5.34 nM and 5 nM
same,"Percent Control, BLK",BLK [7]; DiscoverX binding,2.4%
same,inhibition at 1 µM,"BLK [7]; read-out: % inhibition at 1 uM, BLK",2.4%
same,EC50,OCI-Ly19 cells,40 nM
same,inhibition at 1 µM,DYRK1A,0.1%
same,EC50,MWCL-1 cells,180 nM
same,inhibition at 1 µM,PIP5K2C,2.7%
same,inhibition at 1 µM,DYRK2,0.6%
same,inhibition at 1 µM,MKNK2,0.15%
same,"Percent Control, CLK1/2 (CLK2)","CLK2 [8]; DiscoverX binding, second value of cell",1.0%
same,inhibition at 1 µM,"CLK2 [8]; read-out: % inhibition at 1 uM, CLK2",1.6%
same,inhibition at 1 µM,TAK1,0.35%
same,inhibition at 1 µM,JNK1,1.9%
same,"Percent Control, BTK",BTK [9]; DiscoverX binding,0.2%
same,percent of control (remaining binding) at 1 µM,"BTK [9]; read-out: % inhibition at 1 uM, BTK",0.2%
same,IC50,CLK2 [10],50 nM
same,inhibition at 1 µM,MEK5,0.3%
same,inhibition at 1 µM,PIK3CA(I800L),0.45%
same,EC50,OCI-Ly3 cells,80 nM
same,"Percent Control, CLK1/2 (CLK1)","CLK1 [11]; DiscoverX binding, first value of cell",0.4%
same,inhibition at 1 µM,"CLK1 [11]; read-out: % inhibition at 1 uM, CLK1",0.4%
same,"Percent Control, EGFR(T790M)",EGFR(T790M) [12]; DiscoverX binding,1.8%
same,inhibition at 1 µM,"EGFR(T790M) [12]; read-out: % inhibition at 1 uM, EGFR(T790M)",1.4%
same,IC50,BLK [13],30.2 nM and 30 nM
same,IC50,mTOR [14],21.9 nM and 22 nM
same,inhibition at 1 µM,PIK3CG,4.2%
same,IC50,CLK1 [15],384 nM
same,"Percent Control, BMX",BMX [16],4.6%
same,inhibition at 1 µM,IRAK3,0.7%
same,"Percent Control, ITK",ITK,29%
same,"% inhibition at 1 uM, FLT3(ITD)",FLT3(ITD),2.4%
same,inhibition at 1 µM,JNK3,1.8%
same,EC50,BCWM.1 cells,50 nM
same,"Percent Control, mTOR",mTOR [17],0%
same,inhibition at 1 µM,YSK4,1.2%
same,inhibition at 1 µM,CSNK2A2,1.2%
same,IC50,EGFR(T790M) [18],98.8 nM
same,IC50,BMX [19],7.36 nM and 7 nM
same,"Percent Control, TEC",TEC [20],6%
C=CC(=O)N1CCc2ccc(-n3c(=O)ccc4cnc5ccc(-c6cn[nH]c6)cc5c43)cc21 [II-14],IC50,JAK3 [5],2150 nM
same,EC50,Ramos cells,360 nM
same,IC50,BTK [6],12 nM
same,EC50,OCI-Ly19 cells,160 nM
same,EC50,MWCL-1 cells,650 nM
same,EC50,OCI-Ly3 cells,500 nM
same,IC50,TEC [21],57 nM
same,IC50,BLK [13],247 nM
same,IC50,mTOR [14],209 nM
same,EC50,BCWM.1 cells,320 nM
same,IC50,BMX [19],8.75 nM and 9 nM
NC1(c2ccc(-c3nc4ccn5c(=O)[nH]nc5c4cc3-c3ccccc3)cc2)CCC1 [MK2206],MK2206 concentration that potentiates the antiproliferative activity of I-14,RV-1 cells [22],≤ 25 nM
CN(c1ncccc1CNc1nc(Nc2ccc3c(c2)CC(=O)N3)ncc1C(F)(F)F)S(C)(=O)=O [PF562271],stimulatory effect of BmxWT on wound healing migration,[23],blocked
